This is an account of results in patent US7687079B2, “Methods of treating ileus” (priority 2002, dated 2010).

For assay [1], the system named is small intestinal circular muscle. Description: in vitro circular muscle contractility (spontaneous and bethanechol-stimulated) after SITx. Format: in vivo, rat. How it is done:
(§1) To determine whether CO is protective against ileus associated with small bowel transplantation, orthotopic SITx was performed in syngenic Lewis rats. SITx with caval drainage was performed using a previously described procedure. […] The graft was perfused via the aortic segment with 5 ml chilled Ringer's lactate solution, and the intestinal lumen was irrigated with 20 ml of cold saline solution containing 0.5% neomycin-sulfate (Sigma, St. Louis, Mo.). End-to-side anastomoses between the graft aorta and the recipient infrarenal aorta, and between the graft portal vein and recipient vena cava, were performed with 10-0 Novafil™ suture. The cold ischemic time was 1 hour. The entire recipient intestine was removed and the enteric continuity was restored by proximal and distal end-to-end intestinal anastomoses. Recipient animals were given 20 mg/day prophylactic cefamandole nafate for 3 postoperative days. Transplanted recipients were given water 3 hours after surgery, and were fed 24 hours after surgery.
(§2) Four groups of animals were examined in this study, two of which received a SITx. Group 1 consisted of unoperated normal rats. Group 2 animals were exposed to CO with no surgery. In Group 3, syngeneic SITx were performed and the recipients kept in room air. Group 4 consisted of SITx recipients that were placed in the CO chamber for 1 hour before surgery and then re-exposed to CO immediately following surgery until sacrificed. In both Groups 3 and 4, normal LEW rats served as donors.
(§3) The animals were exposed to CO at a concentration of 250 ppm. Briefly, 1% CO in air was mixed with air (21% oxygen) in a stainless steel mixing cylinder and then directed into a 3.70 ft^3 glass exposure chamber at a flow rate of 12 L/min. A CO analyzer (Interscan, Chatsworth, Calif.) was used to measure CO levels continuously in the chamber. CO concentrations were maintained at 250 ppm at all times. The animals were supplied food and water during the exposures.
The effect of CO treatment on intestinal dysmotility in transplanted grafts was assessed both in vitro and in vivo. […] In vitro circular muscle mechanical activity was measured as previously described (Eskandari et al., Am. J. Physiol. 273(3 Pt 1):G727-34 (1997)). Rats were anesthetized and killed by exsanguination 24 hours post-operatively. A segment of mid-jejunum was pinned in a Sylgaard™ lined dissecting dish containing pre-oxygenated Krebs-Ringer-bicarbonate buffer (KRB; in mM: 137.4 Na^+, 5.9 K^+, 2.5 Ca^2+, 1.2 Mg^2+, 134 Cl^−, 15.5 HCO3^−, 1.2 H2PO4^−, and 11.5 glucose) that was equilibrated with 97% O2/3% CO2. The intestine was opened along the mesenteric border and the mucosa removed by stripping with fine forceps. Full-thickness strips of muscularis (1×6 mm) were cut parallel to the circular muscle layer. Muscle strips were mounted in standard horizontal mechanical organ chambers that were continuously superfused with pre-oxygenated KRB maintained at 37° C. One end of each strip was attached by ligature to a fixed post and the other to an isometric force transducer (WPI, Sarasota, Fla.). Strips were allowed to equilibrate for 1 hour, after which they were incrementally stretched to the length at which maximal spontaneous contraction occurred (Lo). […] Contractile activity was calculated by integrating the area under the trace, normalized by converting the weight and length of the strip to square millimeters of tissue (1.03 mg/mm^2), and reported as g/s/mm^2.

For assay [2], the system named is rats that underwent small bowel transplantation. The assay can be described thus: intestinal transit of orally fed fluorescein-labeled dextran after SITx. Format: in vivo, rat. To be noted: for distribution of fluorescent label along the gastrointestinal tract: 2 hours after oral feeding. How it is done:
as §1, §2, §3
Intestinal transit was measured in controls and manipulated animals 48 hours postoperatively by evaluating the intestinal distribution of fluorescein-labeled dextran (Molecular Probes). Animals were lightly sedated with inhaled isofluran and fed orally with labeled dextran (200 μl of 6 mg/ml in saline). Two hours after administration, the animal was sacrificed and the entire bowel from stomach to distal colon was collected. […] After pelleting the intestinal tissue and chyme, aliquots of the supernatant were read in duplicate on a plate reader (CytoFluor II; excitation wavelength 530 nm and emission 590 nm) for quantification of the fluorescent signal in each bowel segment. […] Intestinal transit was determined for statistical analysis by calculating the geometric center (GC).

Another assay deals with COX-2 mRNA. The assay can be described thus: COX-2 mRNA in muscularis after IM (real time RT-PCR). In kind it is in vivo, mouse. How it is done:
Pro- and anti-inflammatory gene expression was determined by real time RT-PCR. The small intestinal muscularis externa was collected at 4 time points (3, 6, 12, and 24 hr) postoperatively and snap frozen in liquid nitrogen. Total RNA extraction was performed using the guanidium-thiocyanate phenol-chloroform extraction method as described in Eskandari et al. (Id.) RNA pellets were resuspended in RNA-secure resuspension solution (Ambion Inc., Austin, Tex.), followed by removal of potential contaminating DNA by treatment with DNase I (DNA-Free Kit, Ambion Inc., Austin, Tex.). Equal aliquots (5 μg) of total RNA from each sample were quantified by spectrophotometry (wavelength […]). Peak mRNA expression was quantified in duplicate by SYBR Green two-step, real-time RT-PCR. β-actin was used as the endogenous reference. Aliquoted RNA (40 ng) was subjected to first-strand complementary DNA (cDNA) synthesis using random hexamers (PE applied Biosystems, Foster City, Calif.) and Super Script II (Life Technologies, Rockville, Md.). Primers were taken from the literature or designed according to published sequences (Table 3). PCR reaction mixture was prepared using SYBR Green PCR Core Reagents (PE Applied Biosystems). Each sample was estimated in duplicate using the conditions recommended by the manufacturer. Real-time PCR data were plotted as the ΔRn fluorescence signal versus the cycle number. An arbitrary threshold was set to the midlinear portion of the log ΔRn cycle plot. The threshold cycle (CT) is defined as the cycle number at which the ΔRn, crosses this threshold. Quantification of mRNA expression was normalized to β-actin and calculated relative to control using the comparative CT method.
To exclude PCR amplification of contaminating genomic DNA, RT-negative controls (samples containing RNA which was not reverse transcribed) were included in each PCR reaction. Melting curve analyses were performed for each reaction to ensure amplification of specific product. […] PCR amplification efficiency of each target cDNA was measured by determining the colinearity of serial dilutions. […]
For orientation: In qPCR the cycle at which signal appears reflects the starting amount.

SMILES strings stand for the structures.

As to `[C-]#[O+]` [CO, carbon monoxide], the peak contractile force in assay [1] (SITx + CO 250 ppm, 100 μM bethanechol) is listed as 3.6±0.7 g/mm^2/s; in assay [1] (unoperated animals treated with CO 250 ppm, bethanechol), 3.2±0.5 g/mm^2/s. Besides, in assay [1] (SITx + CO, Table 2), the Contractile force is 3.0 ± 0.4 g/s/mm^2. Further, the spontaneous contractile activity result in assay [1] (transplanted (SITx) rats, CO 250 ppm, 24 hours after reperfusion) is reported as “restored”; in assay [1] (unoperated control rats, CO 250 ppm for 24 hours) it was “no effect”. For the same compound, the intestinal transit entry in assay [2] (SITx + CO, Table 2) is “normal”. The “intestinal transit (Geometric Center)” value in assay [2] (SITx rats, inhaled CO 250 ppm, 48 hours postoperatively) is recorded as “significantly improved”. The “distribution of fluorescent label along the gastrointestinal tract” value in assay [2] (transplanted animals treated with CO) is “small bowel segments 6, 7 and 8”; in assay [2] (unoperated control rats treated with CO), “small bowel segments 9 and 10, and in the cecum”. Besides, in the assay with COX-2 mRNA (IM + CO, 3 or 6 hr time points), the “IM-induced COX-2 gene expression” value is on record as “no effect”. Moreover, the “COX-2 mRNA expression” value in the assay on COX-2 mRNA (control animals, CO inhalation, 3 hr post-treatment) is “significantly increased”. Moreover, the “induction of COX-2 message” value in the assay with COX-2 mRNA (unoperated control mice, CO inhalation alone, 3 hr) is listed as 2.5 fold.
